In patent US20110287494A1, “PROCESS FOR PRODUCTION OF OPTICALLY ACTIVE AMINE DERIVATIVE” (Daicel Chemical Industries Ltd, priority 2008, published 2011):
Entries after “also recorded” stand apart in the source; their conditions may differ.

Legend:
[1] = test system: imine reductase purified from GF3587; experiment: Substrate specificity of imine reductase purified from GF3587 (decrease of NADPH absorbance at 340 nm); format: biochemical, Streptomyces sp. GF3587; conditions: for Relative Activity: 2-MPN = 100; for level of activity of reducing the compound, activity of reducing 2-methyl-1-pyrroline taken as 100: relative to 2-MPN = 100
Description: To assess the substrate specificity of the imine reductase purified from GF3587, the activities of the enzyme towards the compounds listed in Table 4 were compared.
One ml of reaction mixtures having the composition described below were incubated at […]. The reaction mixtures were assayed to determine the decrease in absorbance (340 nm) of NADPH due to the generation of (R)-2-methylpyrrolidine. An imine reductase solution (2.04 U/ml) was added to reaction solutions containing each substrate compound shown in Table 4 to initiate the reaction. The absorbance of each reaction solution was determined at 340 nm after two minutes of incubation.
The relative activity shown in the table is defined as relative activity when the enzymatic activity on […] (2-MPN) is taken as 100.

[2] = test system: imine reductase responsible for the reduction of 2-methyl-1-pyrroline (crude enzyme solution); experiment: Coenzyme dependency of 2-methyl-1-pyrroline reduction by crude enzyme solution; format: biochemical, Streptomyces sp. GF3587; conditions: 10 mM coenzyme, 10 mM 2-methyl-1-pyrroline, pH 7.0, 30° C.
Description: (§1) The cells of Streptomyces sp. GF3587 were cultured according to Example 1, and then crushed with glass beads. A crude enzyme solution was prepared by removing intact microbial cells and cell debris by centrifugation. 100 μl of the crude enzyme solution was added to 100 mM phosphate buffer (pH 7.0) containing 10 mM 2-methyl-1-pyrroline and 10 mM NADH or NADPH. During incubation of the mixture at 30° C., absorbance was measured at 340 nm to monitor the decrease of NAD(P)H. The enzymatic activity was determined by this assay.

[3] = Optimal pH of imine reductase; format: biochemical, Streptomyces sp. GF3587; conditions: 30° C.
Description: Furthermore, the imine reductase purified from GF3587 was tested for its optimal pH. The reaction was started by adding an imine reductase (6.82 U/ml) solution to reaction mixtures having the same composition as shown in (1), except that various types of buffer agents were added. The mixtures were incubated at 30° C. for two minutes. The buffers used in this experiment and their pH are listed below.
100 mM citrate buffer: pH 3 to 6
100 mM sodium acetate buffer: pH 4 to 5.5
100 mM potassium phosphate buffer: pH 6 to 8
100 mM Tris-HCl buffer: pH 7.5 to 9
100 mM glycine-sodium hydroxide buffer: pH 9 to 11
The reaction solutions were assayed to determine the decreases in absorbance (340 nm) of NADPH due to the generation of (R)-2-methylpyrrolidine. […] Furthermore, 80% or more of the maximal activity was retained at pH 6.0 to 7.5.

[4] = Optimal temperature of imine reductase; format: biochemical, Streptomyces sp. GF3587; conditions: pH 7.0, 10 to 70° C. tested
Description: The imine reductase purified from GF3587 was tested for its optimal temperature. 1 ml of reaction solution having the composition described below were incubated at 10 to 70° C. to measure the decrease of absorbance (340 nm) of NADPH due to the generation of (R)-2-methylpyrrolidine. After the reaction solutions were pre-incubated at each temperature for five minutes, an imine reductase solution (12.3 U/ml) was added thereto to initiate the reaction. After two minutes, the absorbance of the reaction solutions was measured at 340 nm. The amount of imine reductase that catalyzes the decrease (oxidation) of 1 μmol of NADPH per minute when incubated at 30° C. in the reaction solution having the composition described below is defined as 1 U. The result is shown in FIG. 7.

[5] = Imine-reducing activity of microbial cell extracts of recombinant E. coli JM109; format: biochemical; conditions: protein expressed in E. coli
Description: as §1
The E. coli JM109 strain that had been transformed with an imine reductase expression plasmid pSUSRIR1 was cultured in an ampicillin-containing liquid LB medium at 30° C. overnight. After adding 0.1 mM IPTG, the cells were further cultured for four hours.
The microbial cells were harvested by centrifugation, and then suspended in 100 mM potassium phosphate buffer (pH 7.0) containing 1 mM DTT. The microbial cells were crushed in Sealed-Type Ultrasonic Cell Disruptor UCD-200™ (Cosmo Bio). After centrifugation, the supernatant was collected as microbial cell extract. […] After adding 0.1 mM IPTG the cells were further cultured for four hours. Using the same method, the microbial cells were also crushed to prepare microbial cell extract.
Each microbial cell extract was assayed for its imine-reducing activity towards 2-methyl-1-pyrroline. […]

For `C1=NCCCN1` [1,4,5,6-Tetrahydropyrimidine], the “Relative Activity” value ([1]; substrate 10 mM) was 0.

For `CC1=NCCC1` [2-Methyl-1-pyrroline (2-MPN), 2-Methyl-1-pyrroline], the “level of activity of reducing the compound, activity of reducing 2-methyl-1-pyrroline taken as 100” value [1] was 100%, the “enzymatic activity corresponding to relative activity 100” value ([1]; substrate 10 mM) was 2.04 U/mL and the “Relative Activity” value ([1]; substrate 10 mM) was 100.

For `Cc1ccco1` [2-Methylfuran], the “Relative Activity” value ([1]; substrate 10 mM) was 0.

With `Cc1ncc[nH]1` [2-Methylimidazole] the “Relative Activity” value ([1]; substrate 10 mM) was 0.

In the case of `Cc1cnccn1` [2-Methylpyrazine], the “Relative Activity” value ([1]; substrate 10 mM) is reported as 0.

For `Cc1ncccn1` [2-Methylpyrimidine], the “Relative Activity” value ([1]; substrate 10 mM) was 0.

In the case of `Cc1nccs1` [2-Methylthiazole], the “Relative Activity” value ([1]; substrate 10 mM) is reported as 0.

For `Cc1cccs1` [2-Methylthiophene], the “Relative Activity” value ([1]; substrate 5 mM) was 0.

With `CC(=NO)c1ccccc1` [Acetophenone oxime] the “Relative Activity” value ([1]; substrate 1 mM) was 0.

With `Nc1nc2c(c(=O)[nH]1)N=C(CNc1ccc(C(=O)N[C@@H](CCC(=O)O)C(=O)O)cc1)CN2` [Dihydrofolic acid] the “level of activity of reducing the compound, activity of reducing 2-methyl-1-pyrroline taken as 100” value [1] was 7.6% and the “Relative Activity” value ([1]; substrate 0.05 mM) was 7.6.

In the case of `C/C(=N\c1ccccc1)c1ccccc1` [N-((E/Z)-N-(1-phenylethylidene)aniline], the “level of activity of reducing the compound, activity of reducing 2-methyl-1-pyrroline taken as 100” value [1] is reported as 29% and the “Relative Activity” value ([1]; substrate 25 mM) is reported as 29.

With `C(=NCc1ccccc1)c1ccccc1` [N-Benzylidenebenzylamine] the “Relative Activity” value ([1]; substrate 10 mM) was 30.

With `NC(=O)C1=CN([C@@H]2O[C@H](COP(=O)(O)OP(=O)(O)OC[C@H]3O[C@@H](n4cnc5c(N)ncnc54)[C@H](O)[C@@H]3O)[C@@H](O)[C@H]2O)C=CC1` [NADH] the “activity with the coenzyme, activity with NADPH taken as 100%” value [2] was 7%.

With `NC(=O)C1=CN([C@@H]2O[C@H](COP(=O)(O)OP(=O)(O)OC[C@H]3O[C@@H](n4cnc5c(N)ncnc54)[C@H](OP(=O)(O)O)[C@@H]3O)[C@@H](O)[C@H]2O)C=CC1` [NADPH, reduced nicotinamide adenine dinucleotide phosphate] the “activity with the coenzyme, activity with NADPH taken as 100%” value [2] was 100%.

B1: imine reductase purified from GF3587: NADPH-dependent imine reductase purified from Streptomyces sp. GF3587, amino acid sequence SEQ ID NO: 6 (protein)
chain: MGDNRTPVTVIGLGLMGQALAAAFLEAGHTTTVWNRSAGKAEQLVSQGAVQAATPADAVAASELVVVCLSTYDNMHDVIGSLGESLRGKVIVNLTSGSSDQGRETAAWAEKQGVEYLDGAIMITPPGIGTETAVLFYAGTQSVFEKYEPALKLLGGGTTYLGTDHGMPALYDVSLLGLMWGTLNSFLHGVAVVETAGVGAQQFLPWAHMWLEAIKMFTADYAAQIDAGDGKFPANDATLETHLAALKHLVHESEALGIDAELPKYSEALMERVISQGHAKNSYAAVLKAFRKPSE
modifications: Streptomyces sp. GF3587
With B1 the “optimal pH” value [3] was 6.5 and the optimal temperature [4] was 50 °C.

B2: Q1EQE0: putative protein of Streptomyces kanamyceticus, SEQ ID NO: 17, imine reductase homologue (protein, listed as Streptomyces kanamyceticus)
chain: MPDNPSTKGRMMRNQQAEHTPVTVIGLGLMGQALAGAFLGAGHPTTVWNRTAAKAEPLVARGAKSAGSVAEAVAASPLVVVCVSDYDAVHALLDPLDGTALQGRTLVNLTSGTSAQARERAAWADGRGADYLDGAILAGPAAIGTADAVVLLSGPRSAFDPHASALGGLGAGTTYLGADHGLASLYDAAGLVMMWSILNGFLQGAALLGTAGVDATTFAPFITQGIGTVADWLPGYARQIDDGAYPADDAAIDTHLATMEHLIHESEFLGVNAELPRFIKALADRAVADGHGGSGYPALIEQFRTHSGK
In the case of B2, the “imine-reducing activity in words” value [5] is reported as “exhibited the imine-reducing activity; also recorded: had imine-reducing activity”.
